Each structure is given as a SMILES string. Values joined by “and” are separate entries in the source; they are usually repeats but may differ in a detail not shown here. Identical values can stand only once.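 Protocol summary: plate cells (96-well), add compound at 5 concentrations, incubate 48 h, interpolate endpoints linearly. Abbreviation: GI50, concentration required for 50% inhibition of growth. TGI marks complete inhibition of growth.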

Results on 8 molecules are retold here after PubChem BioAssay (NCI).

Holding throughout (assay): growth of human tumour cells (NCI), 48 h
The subject of test [1] is HCT-15 colon.
Test [2] deals with RPMI-8226 leukemia.
Test [3] has as its system LOX IMVI melanoma.
The test system of test [4] is HCC-2998 colon.
Test [5] concerns SN12C renal.
Test [6] concerns IGROV1 ovarian.
Test [7] relates to PC-3 prostate.
Test [8] concerns SNB-19 CNS.
Test [9] has as its system K-562 leukemia.
The test system of test [10] is SF-295 CNS.

Consider `CCCCC(=O)N/N=C/c1c(O)ccc2ccccc12`, for which the GI50 in [1] is 0.532 µM; in [2], 0.247 µM; in test [3], 1.15 µM; in test [4], 3.88 µM; in test [5], 5.44 µM; in test [6], 0.65 µM. In addition, the GI50 in test [7] is 0.953 µM; in test [8] it was 4.26 µM; in test [9], 1.89 µM; in test [10], 1.83 µM. In addition, the TGI is more than 100 µM in test [1]; 1.57 µM in test [2]; more than 31.8 µM in test [3]; more than 100 µM in test [4]; more than 100 µM in test [5]; 7.12 µM in test [6]. In addition, the TGI in test [7] was more than 57.5 µM; in [8], more than 100 µM; in [9] it was more than 100 µM; in test [10], 16.5 µM.

On to `Cc1cc(C(=O)NC(CCC(=O)O)C(=O)O)sc1CCC1CNc2nc(N)[nH]c(=O)c2C1` (stereo not given), for which the GI50 is 0.0502 µM and 0.33 µM in test [1]; 0.15 µM and 0.229 µM in test [2]; 0.0294 µM and 0.0365 µM in test [3]; 0.0677 µM and 0.323 µM in test [4]; 0.0315 µM and 0.0482 µM in [5]; 0.0464 µM and 0.192 µM in [6]. Besides, the GI50 was less than 0.01 µM in [7]; 0.0783 µM and 0.606 µM in [8]; less than 0.01 µM in [9]; 0.0537 µM and 0.0973 µM in test [10]. Moreover, the TGI in test [1], in [2], in test [3], in test [4], in [5] and in [6] was more than 100 µM each time. Moreover, the TGI in test [7], in test [8], in test [9] and in test [10] was more than 100 µM each time.

For `C/C=C/[C@H]1O[C@@H]2C(=C[C@H]1O)C(=O)O[C@H]2C`, the GI50 is 15.7 µM in test [1]; 2.74 µM in test [2]; 15 µM in test [3]; 27.9 µM in test [4]; 16.6 µM in test [5]; 17.1 µM in [6]. Moreover, the GI50 in [7] was 14.8 µM; in [8], 35.6 µM; in [9], 7.55 µM; in [10], more than 82.1 µM. Also, the TGI was 34.7 µM in test [1]; 8.85 µM in test [2]; 31.5 µM in test [3]; 55.9 µM in test [4]; 33.6 µM in test [5]; more than 59.9 µM in [6]. In addition, the TGI in test [7] was 30.8 µM; in test [8], more than 54.6 µM; in test [9], more than 33.8 µM; in [10], more than 100 µM.

Turning to `O=c1c(NO)c([N+](=O)[O-])cnn1-c1ccccc1`, the TGI worked out at 11.6 µM in [1]; 34 µM in test [2]; 3.66 µM in [3]; 9.86 µM in test [4]; 7.59 µM in test [5]; 41.1 µM in [6]. Moreover, the TGI in test [7] turned out to be 2.97 µM; in test [8], 26.1 µM; in test [9], 1.86 µM; in [10] it was 27 µM.

In the case of `O=S1(=O)CS(=O)(=O)OCCO1`, the GI50 in test [1] is more than 85.6 µM; in test [3], 29.7 µM; in test [4], 68.1 µM; in [6], more than 69.7 µM; in [10] it was 43.1 µM. The TGI in [1] came to 128 µM; in [2], 599 µM; in test [3] it was 71.3 µM; in test [4], 106 µM; in test [5], 335 µM; in [6] it was 144 µM. Besides, the TGI worked out at 665 µM in test [7], 324 µM in test [8], 423 µM in test [9] and 121 µM in test [10].

In the case of `O=C1C(=O)c2ccccc2C(O)=C1CCCc1ccc(C2CCCCCC2)cc1`, the GI50 in test [1] was 0.539 µM; in test [2] it was 0.463 µM; in test [3], 0.322 µM; in [4], 0.863 µM; in test [5] it was 2.12 µM; in [6], 0.486 µM. In addition, the GI50 in test [7] is 0.542 µM; in test [8], 0.803 µM; in test [9], 0.447 µM; in test [10], 0.558 µM. In addition, the TGI in test [1] is more than 85.9 µM; in [2], 13.9 µM; in [3] it was 10.5 µM; in [4], 22.7 µM; in test [5], more than 100 µM; in test [6], 5.89 µM. In addition, the TGI in [7] is more than 42.4 µM; in test [8], more than 100 µM; in test [9], more than 34.8 µM; in [10], 30.2 µM.

For the molecule `COc1cc(N2CCN(C(C)C)CC2)ccc1Nc1nc(Nc2cccc(F)c2C(=O)O)c2cc[nH]c2n1`, the GI50 in [1], in [2], in [3], in test [4], in [5] and in [6] was more than 25 µM each time. Moreover, the GI50 in test [7], in test [8], in [9] and in [10] was more than 25 µM throughout. Moreover, the TGI in [1], in [2], in test [3], in [4], in [5] and in test [6] was more than 25 µM each time. In addition, the TGI in test [7], in test [8], in test [9] and in test [10] was more than 25 µM in each case.

As for `Cc1[nH]c(-c2nc3ccccc3[nH]2)c(C)c1C(=O)NC(C)C1CCCCC1` (stereo not given), the GI50 in [1] was 4.77 µM; in test [2] it was 4.35 µM; in [3], 10 µM; in [4] it was 13.6 µM; in [5] it was 10.5 µM; in [6] it was 6.16 µM. For the same molecule, the GI50 in test [7] is 12 µM; in test [8], 10.6 µM; in [9], 3.45 µM; in test [10] it was 4.8 µM. Besides, the TGI came to 19.6 µM in test [1]; 17.7 µM in test [2]; 29.7 µM in test [3]; 34.6 µM in test [4]; 26 µM in test [5]; 23.9 µM in test [6]. For the same molecule, the TGI is 28.4 µM in test [7], 24.8 µM in [8], more than 100 µM in test [9] and 16.8 µM in test [10].
